Marks after values point to notes of the source that are not given here.
What was measured:
human recombinant MAGL = molecular target: T1, human recombinant MAGL (Homo sapiens, UniProt Q99685); assay: Inhibition of monoacylglycerol lipase; type: biochemical
T1 sequence (Q99685 1-303): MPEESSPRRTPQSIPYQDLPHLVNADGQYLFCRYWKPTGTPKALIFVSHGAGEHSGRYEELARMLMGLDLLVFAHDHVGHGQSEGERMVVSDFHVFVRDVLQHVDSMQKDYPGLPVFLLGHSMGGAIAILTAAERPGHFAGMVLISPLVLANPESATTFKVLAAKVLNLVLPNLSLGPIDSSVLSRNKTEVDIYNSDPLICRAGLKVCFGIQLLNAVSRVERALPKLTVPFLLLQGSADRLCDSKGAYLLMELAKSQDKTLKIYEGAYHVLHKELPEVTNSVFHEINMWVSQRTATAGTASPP

[1] = Metabolic stability in porcine blood plasma; type: in vitro ADME; conditions: for stability porcine blood plasma (percent of parent remaining): Table 3, 30 min, 37 °C, n = 3 unless otherwise stated; for metabolic stability porcine plasma (percent of parent remaining): Table 1, 30 min incubation, n = 3
porcine albumin = porcine albumin (Sus scrofa, UniProt P08835); assay: Stability in porcine albumin solution; type: in vitro ADME; conditions: porcine albumin 17.5 mg/mL in PBS; 30 min, 37 °C
Chain of porcine albumin (P08835 25-607): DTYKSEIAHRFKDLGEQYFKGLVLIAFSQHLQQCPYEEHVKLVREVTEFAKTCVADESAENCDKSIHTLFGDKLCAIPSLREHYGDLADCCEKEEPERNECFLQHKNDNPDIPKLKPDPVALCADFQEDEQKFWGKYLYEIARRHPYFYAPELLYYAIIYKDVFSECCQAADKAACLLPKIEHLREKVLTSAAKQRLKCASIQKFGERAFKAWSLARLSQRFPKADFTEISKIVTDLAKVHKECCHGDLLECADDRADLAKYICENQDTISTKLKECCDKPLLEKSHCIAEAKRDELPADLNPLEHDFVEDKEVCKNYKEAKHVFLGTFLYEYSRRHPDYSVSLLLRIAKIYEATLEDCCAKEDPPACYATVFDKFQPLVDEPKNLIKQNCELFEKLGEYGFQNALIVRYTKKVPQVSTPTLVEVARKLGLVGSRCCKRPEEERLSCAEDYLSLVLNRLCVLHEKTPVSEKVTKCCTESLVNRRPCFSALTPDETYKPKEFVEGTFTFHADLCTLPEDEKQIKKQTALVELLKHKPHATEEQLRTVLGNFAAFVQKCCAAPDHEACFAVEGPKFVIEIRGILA

FAAH = molecular target: T2, FAAH (Rattus norvegicus, UniProt P97612); assay: Inhibition of fatty acid amide hydrolase; type: biochemical
T2 sequence (P97612 1-579): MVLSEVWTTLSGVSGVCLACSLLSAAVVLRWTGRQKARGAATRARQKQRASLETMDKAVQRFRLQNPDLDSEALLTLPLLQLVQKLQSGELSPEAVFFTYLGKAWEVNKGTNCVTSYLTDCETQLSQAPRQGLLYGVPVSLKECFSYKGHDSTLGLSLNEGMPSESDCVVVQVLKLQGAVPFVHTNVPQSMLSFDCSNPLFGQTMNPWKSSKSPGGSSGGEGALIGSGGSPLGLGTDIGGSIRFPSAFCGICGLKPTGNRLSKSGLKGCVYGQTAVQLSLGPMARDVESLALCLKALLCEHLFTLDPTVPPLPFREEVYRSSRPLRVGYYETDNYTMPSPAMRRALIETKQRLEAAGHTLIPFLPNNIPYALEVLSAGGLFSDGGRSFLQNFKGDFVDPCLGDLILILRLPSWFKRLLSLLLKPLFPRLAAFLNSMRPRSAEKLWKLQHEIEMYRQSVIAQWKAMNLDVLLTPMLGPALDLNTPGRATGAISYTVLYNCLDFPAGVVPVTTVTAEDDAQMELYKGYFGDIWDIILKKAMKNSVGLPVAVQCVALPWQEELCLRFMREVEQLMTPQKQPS

[2] = Metabolic stability in porcine liver S9 fraction; type: in vitro ADME; conditions: 30 min; for stability porcine liver S9 fractions (percent of parent remaining): 37 °C, no NADPH added; for stability in the absence of BNNP (percent of parent remaining) / stability in the presence of BNNP (percent of parent remaining): porcine liver homogenate; for stability in the presence of BNNP (percent of parent remaining): carboxylesterase 1 inhibitor BNPP 1 mM
[3] = Chemical stability in aqueous solution; type: physicochemical; conditions: for stability in PBS buffer (percent of parent remaining): PBS buffer pH 7.4 with 0.2% Triton X-100, 60 min, 37 °C
[4] = Metabolic stability in rat liver S9 fraction; type: in vitro ADME; conditions: 30 min incubation in the presence of NADPH

SMILES	IC50 (human recombinant MAGL)	stability porcine blood plasma (percent of parent remaining) [1]	stability porcine albumin solution (percent of parent remaining) (porcine albumin)	IC50 (FAAH)	stability porcine liver S9 fractions (percent of parent remaining) [2]	stability in PBS buffer (percent of parent remaining) [3]	metabolic stability porcine plasma (percent of parent remaining) [1]	metabolic stability rat liver S9 fraction (percent of parent remaining) [4]	inhibition at 10 µM (human recombinant MAGL; read-out: MAGL inhibition at 10 μM)	stability in the absence of BNNP (percent of parent remaining) [2]	stability in the presence of BNNP (percent of parent remaining) [2]	factor by which MAGL activity exceeds reference inhibitor ABX-1431 (human recombinant MAGL; ratio of MAGL IC50 values)	cleavage in PBS buffer (pH 7.4) into the amine and 4-hydroxybenzonitrile ([3]; after 30 min at 37 °C, HPLC/MS)	decrease in FAAH inhibitory activity compared with compound 14 (FAAH; ratio of FAAH IC50 values)
Cc1ccc(OC(=O)NCCCCCn2ccc3ccc(F)cc32)cn1 [Compound 48]	310 nM	<5%	62 ± 4%	4 nM	51 ± 9%	82 ± 6%								
CNC(=O)Oc1ccc2c(c1)[C@]1(C)CCN(C)[C@@H]1N2C [physostigmine, reference compound]		>95%	>95%		57 ± 4%	>95%	>95%	76 ± 7%						
O=C(NCCCCCn1ccc2ccc(F)cc21)Oc1cccc(C(=O)O)c1 [Compound 35]	> 10000 nM	78 ± 1%	93 ± 3%	18 nM	74 ± 2%	>95%			31%					
O=C(OC(C(F)(F)F)C(F)(F)F)N1CCN(Cc2ccc(C(F)(F)F)cc2N2CCCC2)CC1 [ABX-1431 (2), reference compound]		95 ± 2%	87 ± 6%		81 ± 3%	90 ± 5%	95 ± 2%	92 ± 2%						
Cc1ncccc1OC(=O)NCCCCCn1ccc2ccc(F)cc21 [Compound 45]	140 nM	23 ± 6%	70 ± 8%	10 nM	65 ± 9%	75 ± 4%								
O=C(NCCCCCCCn1ccc2ccc(F)cc21)Oc1ccccc1 [Compound 21]				84 nM			34 ± 5%	74 ± 11%						
O=C(NCCCCCn1ccc2ccc(F)cc21)Oc1ccc(C(=O)O)cc1 [Compound 33, 4-({[5-(6-Fluoroindol-1-yl)pentyl]carbamoyl}oxy)benzoic Acid]	3300 nM	37 ± 2%	90 ± 9%	12 nM	59 ± 6%	>95%				59 ± 6%	81 ± 8%			
CCOC(=O)C1=C[C@@H](OC(CC)CC)[C@H](NC(C)=O)[C@@H](N)C1 [oseltamivir, reference compound]										11 ± 2%	97 ± 1%			
N#Cc1ccccc1OC(=O)NCCCCCn1ccc2ccc(F)cc21 [Compound 31]						3 ± 2%								
O=C(NCCCCCn1ccc2ccc(F)cc21)Oc1ccccc1C(=O)O [Compound 37, 2-({[5-(6-Fluoroindol-1-yl)pentyl]carbamoyl}oxy)benzoic Acid]	38 nM	28 ± 4%	74 ± 2%	38 nM	77 ± 3%	73 ± 6%						15		
O=C(NCCCCCCn1ccc2ccc(F)cc21)Oc1ccccc1 [Compound 17]				85 nM			55 ± 2%	73 ± 2%						
N#Cc1ccc(OC(=O)NCCCCCn2ccc3ccc(F)cc32)cc1 [Compound 29, 4-Cyanophenyl N-[5-(6-Fluoroindol-1-yl)pentyl]carbamate]						12 ± 3%							nearly totally cleaved	
N#Cc1cccc(OC(=O)NCCCCCn2ccc3ccc(F)cc32)c1 [Compound 30]	380 nM	< 5%	<5%	8 nM	49 ± 4%	72 ± 3%								
O=C(O)c1ccccc1OC(=O)N1CCC(CCn2ccc3ccc(F)cc32)CC1 [Compound 58]		>95%	89 ± 6%	3500 nM	72 ± 6%	>95%								
O=C(NCCCCn1ccc2ccc(F)cc21)Oc1ccccc1 [Compound 11]				470 nM			74 ± 2%	75 ± 6%						
O=C(NCCCCCn1ccc2ccc(F)cc21)Oc1cccc2[nH]ccc12 [Compound 49, Indol-4-yl N-[5-(6-Fluoroindol-1-yl)pentyl]carbamate]		80 ± 3%	81 ± 6%	180 nM	78 ± 4%	>95%								about 6 fold
O=C(NCCCCCn1ccc2ccc(F)cc21)Oc1ccc(F)cc1 [Compound 26, 4-Fluorophenyl N-[5-(6-Fluoroindol-1-yl)pentyl]carbamate]		59 ± 13^n = 6%	91 ± 6^n = 5%	49 nM	69 ± 4%	>95%								
O=C(NCCCCCCCCn1ccc2ccc(F)cc21)Oc1ccccc1 [Compound 25, Phenyl N-[8-(6-Fluoroindol-1-yl)octyl]carbamate]				130 nM			65 ± 2%	74 ± 5%						
O=C(NCCCCCn1ccc2ccc(F)cc21)Oc1cccnc1 [Compound 44]	170 nM	<5%	27 ± 3%	2 nM	53 ± 7%	60 ± 2%								
O=C(O)c1cccc(OC(=O)N2CCC(CCn3ccc4ccc(F)cc43)CC2)c1 [Compound 56]		>95%	94 ± 3%	27 nM	72 ± 7%	>95%								
O=C(O)c1ccc(OC(=O)N2CCC(CCn3ccc4ccc(F)cc43)CC2)cc1 [Compound 54, 4-({4-[2-(6-Fluoroindol-1-yl)ethyl]piperidine-1-carbonyl}oxy)benzoic Acid]		94 ± 3%	93 ± 8%	15 nM	66 ± 9%	>95%								
O=C(NCCCCCn1ccc2ccc(F)cc21)Oc1ccccc1 [Compound 14, Phenyl N-[5-(6-Fluoroindol-1-yl)pentyl]carbamate]			93 ± 6^n = 6%	29 nM		>95%	80 ± 6%	66 ± 8%		76 ± 2%	87 ± 9%			
